Literature values, collected in article PMC6247064 (Cancer Science, 2018).
Values after ≈ are worked out from the molar mass of the structure shown.

Experiments:
[1] = system: BRCA wild-type recurrent high-grade serous ovarian cancer; conditions: phase 2, 8 of 28 women, intention-to-treat population; cited from earlier work
Calu-6 xenograft = conditions: cited from earlier work

SMILES: COc1cccc(OCCCN)c1-c1cc(Nc2cnc(C#N)cn2)n[nH]1 [Prexasertib]
- Partial responses [1]: 29%
- IC50 derived from the single-agent Calu-6 xenograft model (Calu-6 xenograft; plasma concentration): 0.0141 µg/mL (≈ 0.0386 µM)
- Median AUC(0-72) predicted to achieve the maximal tumor response (Calu-6 xenograft; predicted from Calu-6 xenograft PK/pharmacodynamic model, monotherapy): 1896 ng·h/mL
